According to ChEMBL document CHEMBL1201862, “PubChem BioAssay data set” (2004):
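Growth conditions: 96-well plates. Treatment: test compound, 48 hours, 5 concentrations. Analysis: linear interpolation between bracketing concentrations; unreached endpoints set to highest concentration. GI50 marks 50% less growth.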 Activity calls are given as the source filed them. No stated cut-off is given here; in the data, active = GI50 up to about 1.1 µM and inactive = higher.

Key:
Assay in all cases: inhibition of tumour cell growth, NCI panel, 48 h
UACC-257 = test system: UACC-257
SK-OV-3 = test system: SK-OV-3
SN12C = test system: SN12C
DU-145 = test system: DU-145
TK-10 = test system: TK-10
HCT-15 = test system: HCT-15
MDA-MB-435 = test system: MDA-MB-435
NCI/ADR-RES = test system: NCI/ADR-RES
LOX IMVI = test system: LOX IMVI
SF-539 = test system: SF-539
U-251 = test system: U-251
OVCAR-4 = test system: OVCAR-4
SR = test system: SR
Malme-3M = test system: Malme-3M
PC-3 = test system: PC-3
SNB-75 = test system: SNB-75
HL-60 = test system: HL-60
COLO 205 = test system: COLO 205
HCC 2998 = test system: HCC 2998
786-0 = test system: 786-0

SMILES	GI50 (UACC-257)	GI50 (SK-OV-3)	GI50 (SN12C)	GI50 (DU-145)	GI50 (TK-10)	GI50 (HCT-15)	GI50 (MDA-MB-435)	GI50 (NCI/ADR-RES)	GI50 (LOX IMVI)	GI50 (SF-539)	GI50 (U-251)	GI50 (OVCAR-4)	GI50 (SR)	GI50 (Malme-3M)	GI50 (PC-3)	GI50 (SNB-75)	GI50 (HL-60)	GI50 (COLO 205)	GI50 (HCC 2998)	GI50 (786-0)
COc1cc2c(c(O)c1OC)C(O)C1CCC(=O)N1C2c1ccc2c(c1)OCO2 (stereo not given)	> 100 µM (inactive)	> 100 µM (inactive)	> 100 µM (inactive)	> 100 µM (inactive)	> 100 µM (inactive)	> 100 µM	> 100 µM (inactive)	> 100 µM (inactive)	> 100 µM (inactive)	> 100 µM (inactive)	> 100 µM (inactive)	> 100 µM (inactive)	> 100 µM (inactive)	> 100 µM (inactive)	> 100 µM (inactive)	81.3 µM (inactive)	> 100 µM (inactive)	> 100 µM (inactive)	> 100 µM (inactive)	> 100 µM (inactive)
CC(O)CC(=O)CO[C@H]1[C@H](O)[C@@H](O)[C@@H](O)[C@@H]2NC(=O)c3c(cc4c(c3O)OCO4)[C@H]21 (stereo not given in full)	0.0397 µM (active)	0.0617 µM (active)	0.0266 µM (active)	0.0214 µM (active)	0.0353 µM (active)	0.256 µM	0.0386 µM (active)	1.29 µM (inactive)	0.0208 µM (active)	0.0214 µM (active)	< 0.015 µM (active)	0.0483 µM (active)	0.0335 µM (active)	0.0118 µM (active)	0.0272 µM (active)	0.0472 µM (active)	0.0386 µM (active)	0.0332 µM (active)	0.0181 µM (active)	0.0439 µM (active)
COc1ccc(-c2cc(-c3ccccc3)nc(/N=C\c3ccccc3)n2)c(O)c1	> 100 µM (inactive)	7.52 µM (inactive)	> 29 µM (inactive)	7.62 µM (inactive)	> 100 µM (inactive)	5.37 µM	3.72 µM (inactive)	> 86.5 µM (inactive)	8.05 µM (inactive)	> 100 µM (inactive)	10.3 µM (inactive)	> 41.9 µM (inactive)	3.68 µM (inactive)	> 80.4 µM (inactive)	7 µM (inactive)	> 100 µM (inactive)	2.71 µM (inactive)	> 100 µM (inactive)	> 100 µM (inactive)	> 100 µM (inactive)
CCOP(=O)(OCC)OC1c2[nH]cc(C(=O)OCc3ccccc3)c2-c2cc(C(=O)OC)[nH]c2C1OC (stereo not given)	6.79 µM (inactive)	17.7 µM (inactive)	16.4 µM (inactive)	11 µM (inactive)	4.91 µM (inactive)	3.25 µM	> 60.1 µM (inactive)	7.53 µM (inactive)	4.56 µM (inactive)	8.45 µM (inactive)	11.4 µM (inactive)	6.15 µM (inactive)	7.6 µM (inactive)	9.06 µM (inactive)	4.94 µM (inactive)	13.2 µM (inactive)	6.15 µM (inactive)	6.89 µM (inactive)	6.85 µM (inactive)	7.76 µM (inactive)
O=P(O)(CCP(=O)(O)c1ccccc1)c1ccccc1	> 100 µM (inactive)	> 100 µM (inactive)	> 100 µM (inactive)	> 100 µM (inactive)	> 100 µM (inactive)	> 100 µM	> 100 µM (inactive)	> 100 µM (inactive)	> 100 µM (inactive)	> 100 µM (inactive)	> 100 µM (inactive)	> 100 µM (inactive)	> 100 µM (inactive)	> 100 µM (inactive)	> 100 µM (inactive)	> 100 µM (inactive)	> 100 µM (inactive)	> 100 µM (inactive)	> 100 µM (inactive)	> 100 µM (inactive)
CC(=O)SC(C[N+](=O)[O-])c1ccccc1 (stereo not given)	11.3 µM (inactive)	13.3 µM (inactive)	11.1 µM (inactive)	6.37 µM (inactive)	7.26 µM (inactive)	2.21 µM	2.09 µM (inactive)	20.1 µM (inactive)	1.65 µM (inactive)	2.27 µM (inactive)	3.79 µM (inactive)	1.76 µM (inactive)	2.22 µM (inactive)	16.6 µM (inactive)	10.7 µM (inactive)	2.29 µM (inactive)	3.87 µM (inactive)	2.77 µM (inactive)	4.75 µM (inactive)	3.95 µM (inactive)
COc1ccc2c(c1)c1c3c(ccc4ncn2c43)N(CCN(C)C)CCN=1	1.85 µM (inactive)	0.908 µM (active)	0.316 µM (active)	0.942 µM (active)	1.49 µM (inactive)	0.303 µM	0.378 µM (active)	0.438 µM (active)	0.378 µM (active)	0.362 µM (active)	0.363 µM (active)	0.309 µM (active)	0.0302 µM (active)	1.2 µM (inactive)	0.357 µM (active)	0.764 µM (active)	0.333 µM (active)	0.356 µM (active)	0.422 µM (active)	0.19 µM (active)
